Reference: US5200422A, “Benzimidazole derivatives, their preparation and use” (priority 1991, dated 1993)
Where two headings read alike, the source gives them in different places.

Tests used:
Assay type in all cases: cell-based
[1] = test system: BKCa channel; assay: Outside-out patches of granule cells, channel block; conditions: silent periods interdispersed with periods of low or normal activity
Protocol: (§1) All experiments were performed with patch-clamp technique (Hamill et al., Pflugers Arch. 391, 85-100 (1981). The ion composition of the internal solution was (in mM) 4 NaCl, 140 KCl, 1 CaCl2, 1 MgCl2, 2 EGTA, 10 HEPES and the external solution contained 140 NaCl, 4 KCl, 2 CaCl2, 1 MgCl2 and 10 HEPES.
(§2) The BKCa channel in granule cells has been studied in symmetric 144 mM K^+, and under these conditions the average conductance is 154 pS (76 pS with 4 mM external K^+).

[2] = test system: BKCa channel; assay: Single channel experiments, inside-out patches of cerebellar granule cell membrane
Protocol: as §1
In inside-out patches of cerebellar granule cell membrane single BKCa channels were activated by for example 5-trifluoromethyl-1-(5-chloro-2-hydroxyphenyl)-1,3-dihydro-2H-benzimidazole-2-one (3-10 μM), 5-trifluoromethyl-I-(2-hydroxyphenyl)-1,3-dihydro-2H-benzimidazole-2-one ([…]), 5-trifluoromethyl-1-(5-phenyl-2-hydroxyphenyl)-1,3-dihydro-2H-benzimidazole-2-one (3-30 μM). […] No effect was found on the delayed rectifier K^+ channel or on the Cl^- channels also present in the patches.
as §2

[3] = test system: N1E-115 neuroblastoma cells; assay: Whole cell recordings: membrane potential in current clamp mode; conditions: 30 μM to the bath
Protocol: as §1
The membrane potential of N1E-115 neuroblastoma cells was determined in whole-cell recordings using current clamp mode (HEKA EPC-9 patch-clamp amplifier) Due to the high-resistance seal and the large size of these cells, the recorded membrane potential stayed stable for periods of 30-60 min, although at somewhat depolarized values (-15--60 Mv).
The equilibrium potentials for K^+, Cl^-, and Na^+ in these experiments were -90 mV, 0 mV, and +90 mV, respectively (cf. ion composition above) Thus, since potassium is the only ion having a reversal potential more negative than the resting membrane potential, the observed hyperpolarization induced by the test compound must be explained through an increased potassium conductance.

[4] = test system: 160-180 pS BKCa channel; assay: Patch-clamp, cultured guinea pig tracheal smooth muscle cells
Protocol: as §1

[5] = target: BKCa channel (Bos taurus, UniProt Q28204); assay: Patch-clamp, cultured bovine aortic smooth muscle cells
Protocol: as §1

Sequence of BKCa channel (Bos taurus, UniProt Q28204) (Q28204 whole entry): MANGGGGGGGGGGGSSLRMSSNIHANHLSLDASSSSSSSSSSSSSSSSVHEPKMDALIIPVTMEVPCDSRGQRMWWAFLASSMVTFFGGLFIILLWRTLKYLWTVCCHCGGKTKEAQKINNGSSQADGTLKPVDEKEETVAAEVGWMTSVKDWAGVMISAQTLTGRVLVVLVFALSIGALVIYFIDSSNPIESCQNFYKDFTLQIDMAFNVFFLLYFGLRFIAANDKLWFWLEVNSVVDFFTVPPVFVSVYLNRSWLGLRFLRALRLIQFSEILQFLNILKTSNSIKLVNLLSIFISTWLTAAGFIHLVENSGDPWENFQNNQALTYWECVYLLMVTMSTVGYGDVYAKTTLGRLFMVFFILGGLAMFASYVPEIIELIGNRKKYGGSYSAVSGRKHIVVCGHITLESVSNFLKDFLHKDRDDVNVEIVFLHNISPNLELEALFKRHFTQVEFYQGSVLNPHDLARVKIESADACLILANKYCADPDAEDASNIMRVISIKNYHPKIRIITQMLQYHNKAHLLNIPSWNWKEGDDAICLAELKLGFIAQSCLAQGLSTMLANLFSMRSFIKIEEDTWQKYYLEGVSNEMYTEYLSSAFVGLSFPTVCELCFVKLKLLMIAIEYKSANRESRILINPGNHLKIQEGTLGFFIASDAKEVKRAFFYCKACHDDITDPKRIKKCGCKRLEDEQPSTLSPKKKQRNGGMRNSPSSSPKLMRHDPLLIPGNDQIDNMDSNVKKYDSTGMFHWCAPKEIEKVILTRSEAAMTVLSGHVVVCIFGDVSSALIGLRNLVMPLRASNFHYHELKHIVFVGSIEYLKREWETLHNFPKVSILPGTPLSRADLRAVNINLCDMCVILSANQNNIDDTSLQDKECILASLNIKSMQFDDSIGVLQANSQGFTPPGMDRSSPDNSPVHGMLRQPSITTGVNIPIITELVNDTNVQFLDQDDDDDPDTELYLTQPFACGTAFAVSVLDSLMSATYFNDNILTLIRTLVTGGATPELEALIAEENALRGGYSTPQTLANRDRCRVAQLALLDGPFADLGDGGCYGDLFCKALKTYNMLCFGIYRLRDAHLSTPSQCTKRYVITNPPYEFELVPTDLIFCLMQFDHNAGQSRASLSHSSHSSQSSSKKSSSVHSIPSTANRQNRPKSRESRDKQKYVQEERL
Sequence of BKCa channel (Bos taurus, UniProt Q28204) (Q28067 whole entry partner): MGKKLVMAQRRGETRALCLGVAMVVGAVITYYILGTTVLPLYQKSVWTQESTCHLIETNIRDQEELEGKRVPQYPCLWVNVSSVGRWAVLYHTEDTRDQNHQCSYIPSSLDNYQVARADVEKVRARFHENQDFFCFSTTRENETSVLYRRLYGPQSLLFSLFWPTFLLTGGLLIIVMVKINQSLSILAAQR

## Charybdotoxin
[1]
  block of the BKCa channel: blocks the channel

## O=c1[nH]c2cc(C(F)(F)F)ccc2n1-c1cc(Cl)ccc1O [1-(5-chloro-2-hydroxyphenyl)-5-trifluoromethyl-1,3-dihydro-2H-benzimidazol-2-one]
[2]; 3-10 μM
  activation of single BKCa channels: activated
[3]
  delay before hyperpolarization of the cells: 1 to 3 min
[3]; current clamp, SD=-5 Mv, n=8
  average hyperpolarization: -14 Mv
[4]
  activation of the BKCa channel: potently activated
[5]; 3-30 μM
  activation of the BKCa channel: significantly activated

## Oc1ccccc1-n1c(=S)[nH]c2cc(C(F)(F)F)ccc21 [1,3-dihydro-1-(2-hydroxyphenyl)-5-trifluoromethyl-2H-benzimidazole-2-thion]
[5]; 3-30 μM
  activation of the BKCa channel: significantly activated

## O=c1[nH]c2cc(Cl)c(Cl)cc2n1-c1cc(Cl)ccc1O [1,3-dihydro-1-(5-chloro-2-hydroxyphenyl)-5,6-dichloro-2H-benzimidazole-2-one]
[5]; 3-30 μM
  activation of the BKCa channel: significantly activated

## O=c1[nH]c2cc(C(F)(F)F)ccc2n1-c1cc2ccccc2cc1O [1,3-dihydro-1-(3-hydroxy-2-naphthyl)-5-trifluoromethyl-2H-benzimidazol-2-one]
[5]; 3-30 μM
  activation of the BKCa channel: significantly activated

## O=c1[nH]c2cc(C(F)(F)F)ccc2n1-c1ccccc1O [5-trifluoromethyl-1,3-dihydro-1-(2-hydroxyphenyl)-2H-benzimidazol-2-one]
[2]
  activation of single BKCa channels: activated

## O=c1[nH]c2cc(C(F)(F)F)ccc2n1-c1cc(-c2ccccc2)ccc1O [1,3-dihydro-1-(5-phenyl-2-hydroxyphenyl)-5-trifluoromethyl-2H-benzimidazol-2-one]
[2]; 3-30 μM
  activation of single BKCa channels: activated
[5]; 3-30 μM
  activation of the BKCa channel: significantly activated

## O=c1[nH]c2cc(C(F)(F)F)c([N+](=O)[O-])cc2n1-c1cc(Cl)cc([N+](=O)[O-])c1O [1,3-dihydro-1-(5-chloro-3-nitro-2-hydroxyphenyl)-5-trifluoromethyl-6-nitro-2H-benzimidazol-2-one]
[5]; 1-3 μM
  activation of the BKCa channel: significantly activated
